Target: Lysine-specific histone demethylase 1A (Homo sapiens, UniProt O60341)
Description: Inhibition of recombinant full length LSD1 (unknown origin) transfected in Escherichia coli BL21 (DE) using H3K4me2 as substrate by flourescence based analysis

Structure (SMILES)	IC50
COCCOc1cc2ncnc(N3CCN(C(C)=O)CC3)c2cc1OCCOC	> 50 µM
COCCOc1cc2ncnc(Nc3ccc4c(c3)OCO4)c2cc1OCCOC	> 50 µM

More lines, now with the values ahead:

IC50	Structure (SMILES)
> 50 µM	COCCOc1cc2ncnc(Nc3ccccc3)c2cc1OCCOC
> 50 µM	C#Cc1cccc(Nc2nc(-c3ccccc3)nc3ccccc23)c1
> 50 µM	COCCOc1cc2ncnc(N3CCN(c4ccccc4F)CC3)c2cc1OCCOC

— ChEMBL document CHEMBL4831513, “Discovery of quinazoline derivatives as a novel class of potent and in vivo efficacious LSD1 inhibitors by drug repurposing” (Eur J Med Chem, 2021)
